# In paper PMC9658513, “Discovery of Compounds That Selectively Repress the Amyloidogenic Processing of the Amyloid Precursor Protein: Design, Synthesis and Pharmacological Evaluation of Diphenylpyrazoles” (International Journal of Molecular Sciences, 2022):
# Legend:
# Format in all cases: cell-based, human
# Aβ1–42 peptide secretion = assay: Aβ1–42 secretion in cell medium by ELISA; details: SY5Y-APP^WT cells, 24 h treatment, mean ± SD of at least three experiments in triplicate
# Procedure, shortened: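 SY5Y-APP^WT cells (SH-SY5Y human neuroblastoma stably expressing human wild-type APP695) were treated with compounds for 24 h in supplemented DMEM at 37 °C. Secreted Aβ1–40 and Aβ1–42 were quantified in the collected, centrifuged conditioned medium by ELISA, in pg/mL.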
# sAPPβ secretion = sAPPβ secretion (MSD sAPPα/sAPPβ Multiplex Kit); details: SY5Y cells, mean ± SD of at least three experiments in triplicate
# Procedure: (§1) A selection of compounds with several selected activities was performed including sAPPα and sAPPβ, which were further explored. […] The decrease in Aβ could result from a decrease in either β- or γ-secretase cleavage or an increase in the α-secretase cleavage of APP. Thus, medium concentrations of sAPPβ and sAPPα, which are the β- and α-secretase extramembrane shed APP fragments, were determined after cell drug treatments.
# (§2) The human neuroblastoma cell line SY5Y-APP^695WT was maintained in Dulbecco’s modified Eagle medium (DMEM, high glucose, pyruvate—GIBCO, Life Technologies, Carlsbad, CA, USA) supplemented with 10% fetal bovine serum, 2 mM L-glutamine, 1 mM non-essential amino acids and penicillin/streptomycin (GIBCO, Life Technologies, Carlsbad, CA, USA) at 37 °C in a 5% CO2 humidified incubator [36]. For compound treatment, a 10 mM stock solution was diluted in freshly supplemented DMEM medium to obtain the precise final concentration of the drug. Cells were plated at a density of 5 × 10^5 cells per well into 12-well plates and cultured with 1 mL supplemented DMEM cell medium for 24 h before compound exposure. The following day, the cell medium was replaced with fresh medium containing the compounds diluted at the indicated concentrations. Cells were treated for 24 h. At the end of the treatments, the cell medium was collected and kept at −80 °C until use, cells were rinsed once with PBS and extracted in 100 µL of Laemmli buffer (10 mM Tris, 20% glycerol, and 2% sodium dodecyl sulfate) using a cell-scraper. The cell lysate was further sonicated (30 pulses of 0.5 s, 60 Hz) for 5 min. Total protein concentration was determined using the Pierce BCA Protein Assay Kit (Thermo Scientific, Waltham, MA, USA) according to the manufacturer’s instructions. Samples were stored at −80 °C until analysis.
# Conditioned media of SY5Y-APP^695WT collected at the end of treatments were centrifuged at 1000× g for 5 min to eliminate cell debris.
# (§3) Aβ1–40/Aβ1–42 peptides, Aβx–38/Aβx–40/Aβx–42, and sAPPα/sAPPβ concentrations in pg/mL were determined, respectively, using amyloid-beta 40 and 42 Human ELISA Kits (Invitrogen), the V-PLEX Plus Aβ Peptide Panel 1 (4G8) Kit (Meso Scale Diagnostics, MSD R©, Rockville, MD, USA), and the sAPPα/sAPPβ Multiplex Kit (Meso Scale Diagnostics, MSD R©, Rockville, MD, USA) according to the manufacturer’s instructions.
# sAPPα = sAPPα secretion (MSD sAPPα/sAPPβ Multiplex Kit); details: concentration increasing sAPPα 1.5-fold vs untreated control
# Procedure: as §1
# as §2, with “The cell lysate was further sonicated (30 pulses of 0.5 s, 60 Hz) for 5 min.” left out, “Samples were stored at −80 °C until analysis.” left out
# as §3
# SY5Y-APP^695WT cells = assay: in vitro
# Procedure, shortened: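 Cells seeded at 3 × 10^4 per well, attached 24 h, then exposed to drug for 72 h in DMEM with 10% SVF. Viability by MTS colorimetric assay, absorbance at 490 nm.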
molecule,measurement,setting,value
"CN(C)CCCc1ccc(-c2nn(-c3ccc(CN(C)C)cc3)cc2CN(C)C)cc1 [Compound 24, 3-[4-[4-(Dimethylaminomethyl)-1-[4-(dimethylaminomethyl)phenyl] Pyrazol-3-yl]phenyl]-N,N-dimethyl-propan-1-amine]",IC50,Aβ1–42 peptide secretion; Homo sapiens,2.5 ± 0.2 µM
"Cc1cn(-c2cccc(CO)c2)nc1-c1ccc(CN(C)CCCN(C)C)cc1 [Compound 57, (3-{3-[4-({[3-(Dimethylamino)propyl](methyl)amino}methyl)phenyl]-4-methyl-1H-pyrazol-1-yl}phenyl)methanol]",IC50,Aβ1–42 peptide secretion; Homo sapiens,3.5 ± 0.8 µM
"Cc1cn(-c2cccc(CN3CCN(C)CC3)c2)nc1-c1cccc(CN(C)C)c1 [Compound 65, N,N-dimethyl-1-[3-[4-methyl-1-[3-[(4-methylpiperazin-1-yl)methyl]phenyl]pyrazol-3-yl]phenyl]methanamine]",IC50,Aβ1–42 peptide secretion; Homo sapiens,2.1 ± 0.4 µM
"Cc1cn(-c2cccc(CN(C)C)c2)nc1-c1ccc(CN(C)CCCN(C)C)cc1 [Compound 67, {[4-(1-{3-[(Dimethylamino)methyl]phenyl}-4-methyl-1H-pyrazol-3-yl)phenyl]methyl} [3-(Dimethylamino)propyl]methylamine]",IC50,Aβ1–42 peptide secretion; Homo sapiens,2.1 ± 0.5 µM
same,IC50,sAPPβ secretion; Homo sapiens,3.2 ± 1.4 µM
"Cc1cn(-c2cccc(CN(C)C)c2)nc1-c1cccc(CN(C)CCCN(C)C)c1 [Compound 70, N′-[[3-[1-[3-(Dimethylaminomethyl)phenyl]-4-methyl-pyrazol-3-yl]phenyl] Methyl]-N,N,N′-trimethyl-propane-1,3-diamine]",IC50,Aβ1–42 peptide secretion; Homo sapiens,2.1 ± 0.1 µM
"Cc1cn(-c2cccc(CN3CCN(C)CC3)c2)nc1-c1cccc(CN(C)CCCN(C)C)c1 [Compound 71, N,N,N′-Trimethyl-N′-[[3-[4-methyl-1-[3-[(4-methylpiperazin-1-yl)methyl]phenyl]pyrazol-3-yl]phenyl]methyl]propane-1,3-diamine]",IC50,Aβ1–42 peptide secretion; Homo sapiens,1.7 ± 0.1 µM
same,IC50,sAPPβ secretion; Homo sapiens,4 ± 0.4 µM
"N′-[[4-[4-[3-(Dimethylamino)propyl]-3-[4-[3-(dimethylamino)propyl]phenyl] Pyrazol-1-yl]phenyl]methyl]-N,N,N′-trimethyl-propane-1,3-diamine [Compound 33]",sAPPα C1.5,sAPPα,>10 µM
same,IC50,Aβ1–42 peptide secretion,9.7 ± 1.2 µM
same,CC50,SY5Y-APP^695WT cells,> 100 µM
same,Cytotox. CC50,SY5Y-APP^695WT cells,100 µM
same,IC50,sAPPβ secretion,6.8 ± 0.3 µM
